The source made the active and inactive calls.

The values that follow come from ChEMBL document CHEMBL1201862, “PubChem BioAssay data set” (2004).

The target in experiment [1] is Ras and Rab interactor 1/Tyrosine-protein kinase ABL1 (Homo sapiens, UniProt P00519+Q13671). The experiment is classed as functional.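 Note: biochemical TR-FRET dose-response test measuring inhibition of binding between Rin1 and Abl proteins.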
The target of experiment [2] is Potassium voltage-gated channel subfamily KQT member 2 (Rattus norvegicus, UniProt O88943). Put plainly: blockers of KCNQ2 channel current – cell-based, automated electrophysiology, set II, rat KCNQ2, dose response (AID 588637). The experiment is classed as functional.
Potassium voltage-gated channel subfamily KQT member 2, sequence (O88943 whole entry): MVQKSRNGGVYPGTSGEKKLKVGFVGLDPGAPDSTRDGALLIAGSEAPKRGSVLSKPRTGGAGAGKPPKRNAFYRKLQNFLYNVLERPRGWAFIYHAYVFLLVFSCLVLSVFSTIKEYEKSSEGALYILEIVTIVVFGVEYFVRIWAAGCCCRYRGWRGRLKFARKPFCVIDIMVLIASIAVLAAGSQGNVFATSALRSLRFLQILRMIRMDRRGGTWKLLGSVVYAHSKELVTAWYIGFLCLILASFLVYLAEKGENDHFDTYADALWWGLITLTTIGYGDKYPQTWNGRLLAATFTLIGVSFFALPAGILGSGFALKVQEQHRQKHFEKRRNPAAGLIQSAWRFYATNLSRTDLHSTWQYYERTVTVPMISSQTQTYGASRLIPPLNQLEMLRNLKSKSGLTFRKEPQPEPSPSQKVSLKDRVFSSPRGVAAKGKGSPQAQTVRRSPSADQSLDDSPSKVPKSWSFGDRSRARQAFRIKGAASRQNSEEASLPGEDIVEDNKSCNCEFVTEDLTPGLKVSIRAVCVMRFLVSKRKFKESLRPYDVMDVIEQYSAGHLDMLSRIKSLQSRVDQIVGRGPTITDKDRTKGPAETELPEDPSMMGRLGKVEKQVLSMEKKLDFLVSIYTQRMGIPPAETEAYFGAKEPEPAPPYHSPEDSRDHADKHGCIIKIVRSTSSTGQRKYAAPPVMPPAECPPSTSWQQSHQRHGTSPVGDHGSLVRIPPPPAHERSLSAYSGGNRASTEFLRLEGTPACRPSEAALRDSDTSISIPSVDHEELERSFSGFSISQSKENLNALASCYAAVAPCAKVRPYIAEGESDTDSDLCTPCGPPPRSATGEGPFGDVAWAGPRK

Ras and Rab interactor 1/Tyrosine-protein kinase ABL1, sequence (P00519 whole entry): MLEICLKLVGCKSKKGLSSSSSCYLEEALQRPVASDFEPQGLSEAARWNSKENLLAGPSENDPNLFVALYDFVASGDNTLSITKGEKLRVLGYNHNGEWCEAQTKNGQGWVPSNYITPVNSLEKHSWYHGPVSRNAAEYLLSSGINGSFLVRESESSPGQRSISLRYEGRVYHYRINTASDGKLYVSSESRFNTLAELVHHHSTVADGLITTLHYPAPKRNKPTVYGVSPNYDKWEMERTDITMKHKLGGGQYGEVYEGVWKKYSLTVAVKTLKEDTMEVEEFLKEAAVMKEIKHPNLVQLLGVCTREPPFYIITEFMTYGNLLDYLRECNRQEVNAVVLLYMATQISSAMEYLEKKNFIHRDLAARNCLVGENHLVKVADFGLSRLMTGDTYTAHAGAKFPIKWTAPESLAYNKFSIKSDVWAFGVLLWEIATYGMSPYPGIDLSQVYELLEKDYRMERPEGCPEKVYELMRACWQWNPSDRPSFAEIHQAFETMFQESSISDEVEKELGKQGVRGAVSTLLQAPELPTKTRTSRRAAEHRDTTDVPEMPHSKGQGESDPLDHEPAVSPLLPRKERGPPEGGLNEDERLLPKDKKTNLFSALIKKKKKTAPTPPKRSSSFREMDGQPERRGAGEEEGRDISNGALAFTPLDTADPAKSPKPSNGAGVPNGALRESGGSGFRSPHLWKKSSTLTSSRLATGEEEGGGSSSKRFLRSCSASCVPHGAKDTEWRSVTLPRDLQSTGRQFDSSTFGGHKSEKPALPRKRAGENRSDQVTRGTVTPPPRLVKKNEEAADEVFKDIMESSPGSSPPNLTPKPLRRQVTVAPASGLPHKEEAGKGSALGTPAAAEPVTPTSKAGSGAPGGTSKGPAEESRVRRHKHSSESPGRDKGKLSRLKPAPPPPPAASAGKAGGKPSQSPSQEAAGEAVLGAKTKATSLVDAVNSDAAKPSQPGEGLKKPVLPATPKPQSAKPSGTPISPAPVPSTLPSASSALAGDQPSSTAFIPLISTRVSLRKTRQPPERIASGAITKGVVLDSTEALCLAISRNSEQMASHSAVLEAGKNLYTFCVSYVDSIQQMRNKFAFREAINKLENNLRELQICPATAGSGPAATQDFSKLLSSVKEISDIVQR
Ras and Rab interactor 1/Tyrosine-protein kinase ABL1, sequence (Q13671 whole entry): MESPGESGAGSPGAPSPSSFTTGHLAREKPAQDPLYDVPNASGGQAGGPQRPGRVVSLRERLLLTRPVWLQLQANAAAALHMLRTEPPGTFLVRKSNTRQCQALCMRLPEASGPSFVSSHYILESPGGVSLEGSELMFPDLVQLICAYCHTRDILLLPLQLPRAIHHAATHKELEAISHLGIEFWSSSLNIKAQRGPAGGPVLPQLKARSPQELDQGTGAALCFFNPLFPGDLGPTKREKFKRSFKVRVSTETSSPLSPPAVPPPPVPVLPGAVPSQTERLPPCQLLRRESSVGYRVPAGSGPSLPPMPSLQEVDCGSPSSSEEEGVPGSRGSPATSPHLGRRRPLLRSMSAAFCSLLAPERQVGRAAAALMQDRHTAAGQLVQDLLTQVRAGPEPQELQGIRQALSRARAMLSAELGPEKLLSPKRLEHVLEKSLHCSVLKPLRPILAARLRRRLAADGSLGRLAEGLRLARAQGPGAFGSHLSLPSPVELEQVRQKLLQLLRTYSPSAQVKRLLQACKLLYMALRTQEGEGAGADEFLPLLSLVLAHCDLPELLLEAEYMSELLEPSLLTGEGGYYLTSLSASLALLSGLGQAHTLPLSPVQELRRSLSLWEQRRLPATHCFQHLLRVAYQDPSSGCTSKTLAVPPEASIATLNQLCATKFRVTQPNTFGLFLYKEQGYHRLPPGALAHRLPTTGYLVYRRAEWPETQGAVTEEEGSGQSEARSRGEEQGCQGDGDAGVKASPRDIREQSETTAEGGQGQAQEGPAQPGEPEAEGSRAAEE

`CC1(c2nnc(-c3ccncc3)o2)CC(c2ccc(F)cc2)=NO1` (configuration not stated): the IC50 (usually the concentration that gives 50% inhibition) in experiment [1] was 10.8 µM (inactive).

With `Cc1ccc(-c2cc(C(=O)N3CC(C)OC(C)C3)c3ccccc3n2)o1` (configuration not stated), the IC50 in experiment [2] is 610 nM (active).
